Experimental data taken from PubChem BioAssay (NCI).
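Five concentrations, 48 hours, 96-well plates. GI50: concentration for 50% inhibition of growth. At the TGI there is no net growth.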

How the values were obtained:
Assay in all cases: DTP human tumour cell line panel, 48 h
[1] = tested on: U251 CNS
[2] = tested on: NCI/ADR-RES ovarian
[3] = tested on: DU-145 prostate
[4] = tested on: SNB-19 CNS
[5] = tested on: NCI-H460 lung
[6] = tested on: OVCAR-8 ovarian
[7] = tested on: SW-620 colon
[8] = tested on: SR leukemia
[9] = tested on: MDA-MB-231 breast
[10] = tested on: HCC-2998 colon
[11] = tested on: NCI-H522 lung
[12] = tested on: RXF 393 renal
[13] = tested on: UACC-257 melanoma
[14] = tested on: SK-OV-3 ovarian
[15] = tested on: NCI-H23 lung
[16] = tested on: SK-MEL-2 melanoma

| Structure (SMILES) | TGI [1] [µM] | TGI [2] [µM] | TGI [3] [µM] | TGI [4] [µM] | TGI [5] [µM] | TGI [6] [µM] | TGI [7] [µM] | TGI [8] [µM] | TGI [9] [µM] | TGI [10] [µM] | TGI [11] [µM] | TGI [12] [µM] | TGI [13] [µM] | TGI [14] [µM] | TGI [15] [µM] | TGI [16] [µM] | GI50 [10] [µM] |
| --- | --- | --- | --- | --- | --- | --- | --- | --- | --- | --- | --- | --- | --- | --- | --- | --- | --- |
| CC(=O)O[C@H]1C(=O)[C@@]2(C)[C@H]([C@H](OC(=O)c3ccccc3)[C@]3(O)C[C@H](OC(=O)[C@H](O)[C@@H](NC(=O)c4ccc(N)cc4)c4ccccc4)C(C)=C1C3(C)C)[C@]1(OC(C)=O)CO[C@@H]1C[C@@H]2O | > 50 | > 50 | 31.4 | > 50 | > 50 | > 50 | > 50 | > 41.9 | > 50 | 0.0545 | > 50 | > 50 |  |  |  |  |  |
| O=C(Nc1ccc(Cl)cc1)c1cc(S(=O)(=O)Nc2n[nH]c(Nc3ccc4ccccc4c3)n2)c(SSc2cc(Cl)c(C(=O)Nc3ccc(Cl)cc3)cc2S(=O)(=O)Nc2n[nH]c(Nc3ccc4ccccc4c3)n2)cc1Cl | 58.6 | > 85.4 | > 74.4 | 50.4 | 73.7 | > 71.9 | 49.8 | > 68 | 46.5 | 43.7 | 50.8 | 79.9 | > 96.4 | 66.5 | 66.5 |  |  |
| CC1=CC[C@H](C[C@H](C#CCCCC2OCCO2)O[Si](C(C)C)(C(C)C)C(C)C)C(=O)CC1 | > 100 | > 100 | > 100 | > 100 | > 100 | > 100 | > 100 | > 100 | > 100 | > 100 |  | > 100 | > 100 | > 100 | > 100 | > 100 |  |
| CCSc1nnc(Sc2c3ccccc3nc3ccccc23)s1 | > 57.9 | > 64.2 | 30.2 | > 84.5 | 42.5 | > 51.5 | > 40.8 | > 100 | 56.6 | 25.3 |  | 35.3 | 23.6 | > 100 | 53.1 | 56.2 |  |
| Cc1cccc2nc(-c3ccccc3)cc(=O)n12 | > 100 | > 100 | > 100 | > 100 | > 100 | > 100 | > 100 | > 100 | > 100 | > 100 | > 100 | > 100 | > 100 | > 100 | > 100 |  |  |
| CCCCNC(=S)Nc1nc(C(=O)NNC(=S)NCC)cs1 | > 100 | > 100 | > 100 |  |  | > 100 | > 100 | > 100 | > 100 | > 100 | > 100 |  | > 100 | > 100 | > 100 | > 100 |  |
| C1=C(CC2=C[P+](c3ccccc3)(c3ccccc3)C=C(c3ccccc3)O2)OC(c2ccccc2)=C[P+]1(c1ccccc1)c1ccccc1 | 1.23 | 66.7 | 1.73 | 1.25 | 2.03 | 0.69 | 1.42 | 0.538 | 0.938 |  |  |  | 1.33 | 1.41 | 2.2 |  |  |
| CC[C@]12C=CCN3CC[C@@]4(c5cc(Br)c(OC)c([N+](=O)[O-])c5N(C)[C@H]4[C@@](O)(C(=O)OC)[C@@H]1OC(C)=O)[C@@H]32 | > 100 | > 100 | > 100 | > 100 | > 100 | > 100 | > 100 | > 100 | > 100 |  |  | > 100 | > 100 | > 100 | > 100 | > 100 |  |
| CC(=O)NC1C(OCc2ccccc2)OC(CO)C(O)C1OC(C)C(=O)NC(C(=O)NC(CCC(=O)NCCCC(=O)Nc1ccc2c(c1)CN1C(=O)c3ccccc3C1=N2)C(N)=O)C(C)C (configuration not stated) | > 100 | > 100 | > 100 | > 100 | > 100 |  | > 100 | > 100 | > 100 | > 100 |  | > 100 | > 100 | > 100 | > 100 | > 100 |  |
| CC1(C)C2CC(O)C1(C)CC2=O (configuration not stated) | > 100 | > 100 | > 100 | > 100 | > 100 | > 100 | > 100 | > 100 | > 100 | > 100 | > 100 | > 100 | > 100 | > 100 | > 100 |  |  |
| Cc1ccc2c(c1)C(=O)C1(C2)Cc2c(C)cccc2C1=O (configuration not stated) | > 100 | > 100 | > 100 | > 100 | > 100 | > 100 | > 100 | > 100 | > 100 | > 100 | > 100 | > 100 | > 100 | > 100 | > 100 |  |  |
| O=C1C2=Cc3ccccc3CCN2c2ccccc21 | > 31.6 | > 77.9 | > 100 | > 100 | 60.2 | > 100 | > 31.6 | 29.5 | > 59.4 |  | > 82.7 |  | > 79.9 |  | > 100 | 67.9 |  |
| O=C1c2ccccc2C(=O)C2NC(CCCCCSSCCCCCC3=NC4C(=O)c5ccccc5C(=O)C4N3)=NC12 (configuration not stated) | > 100 | > 100 | > 100 |  | > 100 | > 100 | > 100 | > 100 | > 100 |  | > 100 | > 100 | > 100 | > 100 | > 100 | > 100 |  |
| COc1cccc(Nc2nc(C)c([N+](=O)[O-])c(Nc3cccc(OC)c3)n2)c1 | > 100 | 14.4 | 56.1 | > 100 | 19.8 | > 100 | > 100 | > 100 | > 100 |  | > 100 | 35.2 | 46.7 | > 100 | > 100 | 96.5 |  |
| CC(C)CCCC(C)[C@H]1CC[C@H]2n3c(nnc3-c3ccccc3)CCC[C@]12C (some centres not stated) | 23.5 | 24 | 83 | 28.2 | 24.1 | 67.2 | 47.5 | 26.3 | 37.9 | 0.0669 |  | 27 | 26.9 | 26.9 | 28.8 | 29.8 |  |
| Cc1cn(C2OC(CO[Si](C)(C)C(C)(C)C)/C(=C\C#N)C2O[Si](C)(C)C(C)(C)C)c(=O)[nH]c1=O (configuration not stated) | > 100 | > 100 | > 100 | > 100 | > 100 |  | > 100 | > 100 | > 100 |  |  | 92 | > 100 | > 100 | > 100 | 37.1 |  |
| O=c1[nH]c2cccc([N+](=O)[O-])c2c(=O)n1-c1ccc(Cl)cc1 | 59.7 | 43.6 | 41.1 | 45 | 25.8 | 29.4 | 27.1 | 35.2 | 34.3 | 31.4 |  | 37.1 | 29.6 | 28 | 42.1 | 25.6 |  |
| CC(C)(C)c1cc(S(=O)(=O)O)c2oc(-c3ccccc3)cc(=O)c2c1 | > 100 | > 100 | > 100 | > 100 | > 100 | > 100 | > 100 | > 100 | > 100 | > 100 | > 100 | > 100 | > 100 |  | > 100 |  |  |
| OCC1OC(NC(=S)NCCC(F)(F)C(F)(F)C(F)(F)C(F)(F)C(F)(F)C(F)(F)F)C(O)C(O)C1O (configuration not stated) | > 100 | > 100 | > 100 | > 100 | > 100 |  | > 100 | > 100 | > 100 | > 100 |  | > 100 | > 100 | > 100 | > 100 | > 100 |  |
| NC(CSS(=O)(=O)O)=NC1CC2CCC1C2 (configuration not stated) | > 100 | > 100 | > 100 | > 100 | > 100 | > 100 | > 100 | > 100 | > 100 |  | > 100 | > 100 | > 100 | > 100 | > 100 | > 100 |  |
| COc1ccccc1C[C@@H]1OC2(C=CC(=O)CC2SC(=O)c2ccccc2)O[C@H]1Cc1ccccc1OC (some centres not stated) | 2.81 | 4.55 | 18 | 4.94 | 7.87 |  | 1.35 | 2.81 | 7.23 |  |  | 0.501 | 3.02 | 5.04 | 5.43 | 3.31 |  |
| COc1cc2c(/C=C3/C(=O)Nc4ccc(O)cc43)c(Cl)n(Cc3ccccc3)c2cc1C | > 42.4 | 2.6 | 26 | 18.3 | > 43.4 | 12.2 | 19.9 | 3.35 | 42 | 0.799 |  | 5.06 | > 56.5 | > 60.2 | 3.89 | > 100 | 0.201 |
